# Legend:
# ECHCG [1] = test: C. Herbicidal pre-emergence action, weed and crop plants (Tables C); format: in vivo, Echinochloa crus-galli; conditions: application rate 320 g/ha; Table C6a
# Source text: (§1) Seeds of mono- and dicotyledonous weed plants and crop plants were sown, in plastic or organic planting pots, in sandy loam and covered with soil. The compounds according to the invention, formulated in the form of wettable powders (WP) or as emulsifiable concentrates (EC), were applied to the surface of the covering soil as aqueous suspension or emulsion, with the addition of 0.5% of an additive, at an application rate of 6001 of water/ha (converted). Following treatment, the pots were placed in a greenhouse and kept under optimum growth conditions for the test plants. The visual grading of the damage to the test plants was carried out after ca. 3 weeks in comparison to untreated controls (herbicidal effect in percent (%): 100% effect = plants have died off, 0% effect = as control plants). Tables C1 to C12 below show the effects of selected compounds of the general formula (I) according to table 1 on various harmful plants and an application rate corresponding to 320 g/ha or below obtained by the experimental procedure mentioned above. Table C1: pre-emergence activity at 320g/ha against KCHSC in %
# ECHCG [2] = test: A. Herbicidal pre-emergence action on harmful plants (Tables A); format: in vivo, Echinochloa crus-galli; conditions: visual grading after ca. 3 weeks vs untreated controls, 100% = plants have died off, 0% = as control plants
# Procedure, shortened: (§2)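 Greenhouse pre-emergence test: compound applied to the soil surface at 1280 g/ha or below, and herbicidal effect rated visually at ca. 3 weeks on a 0–100% scale against untreated plants.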
# LOLRI [3] = test: as above; format: in vivo, Lolium rigidum; conditions: visual grading after ca. 3 weeks vs untreated controls, 100% = plants have died off, 0% = as control plants
# Procedure, shortened: as §2
# GLXMA [4] = test: F. Post-emergence effects on crop plants (Tables F); format: in vivo, Glycine max; conditions: application rate 320 g/ha, crop plant
# Source text: (§3) Seeds of mono- and dicotyledonous weed plants and crop plants were sown, in plastic or organic planting pots, in sandy loam, covered with soil and grown in a greenhouse under controlled growth conditions. 2 to 3 weeks after sowing, the test plants were sprayed in the single-leaf stage. The compounds according to the invention, formulated in form of wettable powders (WP) or as emulsifiable concentrates (EC), were sprayed onto the green plant parts as aqueous suspension or emulsion, with the addition of 0.5% of an additive, at an application rate of 6001 of water/ha (converted). The test plants were placed in the greenhouse for ca. 3 weeks under optimum growth conditions, and then the effect of the preparations was assessed visually in comparison with untreated controls (herbicidal effect in percent (%): 100% effect = plants have died off, 0% effect = as control plants). Tables F1 to F5 below show the effects of selected compounds of the general formula (I) according to table 1 on various crop plants and an application rate corresponding to 320 g/ha or below obtained by the experimental procedure mentioned above. Table […]: post-emergence activity at 320g/ha against ZEAMX in %
# BRSNW [5] = test: as above; format: in vivo, Brassica napus; conditions: application rate 80 g/ha, crop plant
# Source text: as §3
# STEME = test: A. Herbicidal pre-emergence action on harmful plants (Tables A); format: in vivo, Stellaria media; conditions: visual grading after ca. 3 weeks vs untreated controls, 100% = plants have died off, 0% = as control plants
# Procedure, shortened: as §2
# ZEAMX = test: F. Post-emergence effects on crop plants (Tables F); format: in vivo, Zea mays; conditions: application rate 80 g/ha, crop plant
# Source text: as §3
# VIOTR = test: C. Herbicidal pre-emergence action, weed and crop plants (Tables C); format: in vivo, Viola tricolor; conditions: application rate 320 g/ha; Table C12a
# Source text: as §1
# LOLRI [6] = test: as above; format: in vivo, Lolium rigidum; conditions: application rate 320 g/ha; Table C7a
# Source text: as §1
# BRSNW [7] = test: D. Pre-emergence effects on crop plants (Tables D); format: in vivo, Brassica napus; conditions: application rate 80 g/ha, crop plant
# Source text: (§4) Seeds of mono- and dicotyledonous weed plants and crop plants were sown, in plastic or organic planting pots, in sandy loam and covered with soil. The compounds according to the invention, formulated in the form of wettable powders (WP) or as emulsifiable concentrates (EC), were applied to the surface of the covering soil as aqueous suspension or emulsion, with the addition of 0.5% of an additive, at an application rate of 6001 of water/ha (converted).
# (§5) Following treatment, the pots were placed in a greenhouse and kept under optimum growth conditions for the test plants. The visual grading of the damage to the test plants was carried out after ca. 3 weeks in comparison to untreated controls (herbicidal effect in percent (%): 100% effect = plants have died off, 0% effect = as control plants).
# (§6) Tables D1 to D5 below show the effects of various compounds of the general formula (I) according to Table 1 on various crop plants and an application rate corresponding to 320 g/ha or below obtained by the experimental procedure mentioned above in Biological Examples, Section C. Table D1a: pre-emergence activity at 320g/ha against ZEAMX in %
# DIGSA [8] = test: C. Herbicidal pre-emergence action, weed and crop plants (Tables C); format: in vivo, Digitaria sanguinalis
# Source text: as §1
# GLXMA [9] = test: D. Pre-emergence effects on crop plants (Tables D); format: in vivo, Glycine max; conditions: crop plant
# Source text: as §4, §5, §6
# ORYZA [10] = test: F. Post-emergence effects on crop plants (Tables F); format: in vivo, Oryza sativa; conditions: application rate 80 g/ha, crop plant
# Source text: as §3
# MATIN = test: A. Herbicidal pre-emergence action on harmful plants (Tables A); format: in vivo, Matricaria inodora; conditions: visual grading after ca. 3 weeks vs untreated controls, 100% = plants have died off, 0% = as control plants
# Procedure, shortened: as §2
# ORYZA [11] = test: D. Pre-emergence effects on crop plants (Tables D); format: in vivo, Oryza sativa; conditions: crop plant; application rate 80 g/ha; Table D3b
# Source text: as §4, §5, §6
# SETVI = test: A. Herbicidal pre-emergence action on harmful plants (Tables A); format: in vivo, Setaria viridis; conditions: visual grading after ca. 3 weeks vs untreated controls, 100% = plants have died off, 0% = as control plants
# Procedure, shortened: as §2
# POAAN [12] = test: as above; format: in vivo, Poa annua
# Procedure, shortened: as §2
# TRZAS = test: F. Post-emergence effects on crop plants (Tables F); format: in vivo, Triticum aestivum; conditions: application rate 80 g/ha, crop plant
# Source text: as §3
# AMARE = test: A. Herbicidal pre-emergence action on harmful plants (Tables A); format: in vivo, Amaranthus retroflexus
# Procedure, shortened: as §2
# ABUTH = test: as above; format: in vivo, Abutilon theophrasti; conditions: application rate 1280 g/ha; visual grading after ca. 3 weeks vs untreated controls; 100% = plants have died off, 0% = as control plants
# Source text: (§7) Seeds of mono- and dicotyledonous weed plants were sown in plastic pots (double sowings with one species of mono- and one species of dicotyledonous weed plants per pot), in sandy loam, and covered with soil. The compounds according to the invention, formulated in the form of wettable powders (WP) or as emulsifiable concentrates (EC), were applied to the surface of the covering soil as aqueous suspension or emulsion, with the addition of 0.5% of an additive, at an application rate of 6001 of water per hectare (converted). Following treatment, the pots were placed in a greenhouse and kept under optimum growth conditions for the test plants. The visual grading of the damage to the test plants was carried out after ca. 3 weeks in comparison to untreated controls (herbicidal effect in percent (%): 100% effect = plants have died off, 0% effect = as control plants). Tables A1 to A12, below, show the effects of selected compounds of the general formula (I) according to table 1 on various harmful plants and an application rate corresponding to 1280 g/ha or below obtained by the experimental procedure mentioned above. Table A1: pre-emergence activity at 1280g/ha against ABUTH in %
# DIGSA [13] = test: as above; format: in vivo, Digitaria sanguinalis
# Procedure, shortened: as §2
# VERPE = test: as above; format: in vivo, Veronica persica; conditions: application rate 1280 g/ha; Table A11
# Source text: as §7
# ALOMY = test: as above; format: in vivo, Alopecurus myosuroides
# Procedure, shortened: as §2
# ECHCG [14] = test: B. Herbicidal post-emergence action on harmful plants (Tables B); format: in vivo, Echinochloa crus-galli; conditions: application rate 1280 g/ha; Table B2a
# Procedure, shortened: (§8)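 Activity was scored visually as % damage (100% = dead, 0% = like untreated) about 3 weeks after treatment. Plants at the one-leaf stage, 2-3 weeks old, were sprayed with WP/EC formulations plus 0.5% additive (600 L/ha water, up to 1280 g/ha). Plants were grown in sandy loam in a greenhouse.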
# POAAN [15] = test: as above; format: in vivo, Poa annua
# Procedure, shortened: as §8
# [16] = application rate 80 g/ha, Table A7c
# [17] = application rate 320 g/ha, Table A7b
# [18] = application rate 1280 g/ha, visual grading after ca. 3 weeks vs untreated controls, 100% = plants have died off, 0% = as control plants
smiles,measurement,setting,value
COCc1nn(C)cc1C(=O)N1CCCC1Cc1cc(F)ccc1F (racemic) [Example I-001],pre-emergence activity against ECHCG,ECHCG [1],90%
same,pre-emergence activity against ECHCG,ECHCG [2]; application rate 320 g/ha,100%
same,pre-emergence activity against ECHCG,ECHCG [2]; application rate 1280 g/ha,100%
same,pre-emergence activity against LOLRI,LOLRI [3]; application rate 1280 g/ha,100%
same,post-emergence activity against GLXMA in %,GLXMA [4],20%
same,post-emergence activity against BRSNW in %,BRSNW [5],10%
same,pre-emergence activity against STEME,STEME; application rate 320 g/ha,90%
same,pre-emergence activity against STEME,STEME; application rate 1280 g/ha,90%
same,post-emergence activity against ZEAMX in %,ZEAMX,0%
same,pre-emergence activity against VIOTR,VIOTR,80%
same,pre-emergence activity against LOLRI,LOLRI [6],80%
same,pre-emergence activity against BRSNW in %,BRSNW [7],0%
same,pre-emergence activity against DIGSA,"DIGSA [8]; application rate 80 g/ha, Table C5b",90%
same,pre-emergence activity against DIGSA,"DIGSA [8]; application rate 320 g/ha, Table C5a",100%
same,pre-emergence activity against GLXMA,"GLXMA [9]; application rate 80 g/ha, Table D4b",0%
same,pre-emergence activity against GLXMA,"GLXMA [9]; application rate 320 g/ha, Table D4a",20%
same,post-emergence activity against ORYZA in %,ORYZA [10],0%
same,pre-emergence activity against MATIN,MATIN; application rate 1280 g/ha,90%
same,pre-emergence activity against ORYZA,ORYZA [11],20%
same,pre-emergence activity against SETVI,SETVI; application rate 320 g/ha,90%
same,pre-emergence activity against SETVI,SETVI; application rate 1280 g/ha,100%
same,pre-emergence activity against POAAN,POAAN [12]; [16],100%
same,pre-emergence activity against POAAN,POAAN [12]; [17],100%
same,pre-emergence activity against POAAN,POAAN [12]; [18],100%
same,post-emergence activity against TRZAS in %,TRZAS,10%
"COCc1nn(C)cc1C(=O)N1CCCC1Cc1cc(F)ccc1F (single isomer, unassigned) [Example I-071]",pre-emergence activity against AMARE,"AMARE; application rate 320 g/ha, Table A8b",90%
same,pre-emergence activity against AMARE,AMARE; [18],90%
same,pre-emergence activity against ECHCG,ECHCG [2]; application rate 80 g/ha,90%
same,pre-emergence activity against ECHCG,ECHCG [2]; application rate 320 g/ha,100%
same,pre-emergence activity against ECHCG,ECHCG [2]; application rate 1280 g/ha,100%
same,pre-emergence activity against LOLRI,LOLRI [3]; application rate 80 g/ha,90%
same,pre-emergence activity against LOLRI,LOLRI [3]; application rate 320 g/ha,100%
same,pre-emergence activity against LOLRI,LOLRI [3]; application rate 1280 g/ha,100%
same,pre-emergence activity against ABUTH,ABUTH,90%
same,pre-emergence activity against STEME,STEME; application rate 320 g/ha,90%
same,pre-emergence activity against STEME,STEME; application rate 1280 g/ha,90%
same,pre-emergence activity against DIGSA,"DIGSA [13]; application rate 80 g/ha, Table A12c",90%
same,pre-emergence activity against DIGSA,"DIGSA [13]; application rate 320 g/ha, Table A12b",100%
same,pre-emergence activity against DIGSA,"DIGSA [13]; application rate 1280 g/ha, Table A12a",100%
same,pre-emergence activity against VERPE,VERPE,90%
same,pre-emergence activity against ALOMY,"ALOMY; application rate 320 g/ha, Table A9b",90%
same,pre-emergence activity against ALOMY,"ALOMY; application rate 1280 g/ha, Table A9a",90%
same,post-emergence activity against ECHCG,ECHCG [14],90%
same,post-emergence activity against POAAN,"POAAN [15]; application rate 320 g/ha, Table B7b",90%
same,post-emergence activity against POAAN,"POAAN [15]; application rate 1280 g/ha, Table B7a",90%
same,pre-emergence activity against MATIN,MATIN; application rate 320 g/ha,90%
same,pre-emergence activity against MATIN,MATIN; application rate 1280 g/ha,90%
same,pre-emergence activity against SETVI,SETVI; application rate 80 g/ha,90%
same,pre-emergence activity against SETVI,SETVI; application rate 320 g/ha,90%
same,pre-emergence activity against SETVI,SETVI; application rate 1280 g/ha,90%
same,pre-emergence activity against POAAN,POAAN [12]; [16],100%
same,pre-emergence activity against POAAN,POAAN [12]; [17],100%
same,pre-emergence activity against POAAN,POAAN [12]; [18],100%

# From patent EP4417602A1, “SUBSTITUTED PYRAZOLE CARBOXAMIDES, SALTS THEREOF AND THEIR USE AS HERBICIDALLY ACTIVE SUBSTANCES” (Bayer AG, priority 2023, dated 2024)
